Source: patent US8722644B2, “Mixture of hyaluronic acid for treating and preventing peptic ulcer and duodenal ulcer” (Holy Stone Healthcare Co., Ltd., priority 2010, dated 2014)

Test system: rats that had Aspirin induced gastrointestinal ulcers
Experiment: Treatment effects of PU98 on rats that had Aspirin induced gastrointestinal ulcers
Format: in vivo
Details: 200 mg Aspirin intraperitoneal day 1 to day 3 after fasting; thirty rats; internal abdominal bleeding upon dissection
Description: PU98 (composition of binary molecular weight of HA that are 70% HA with an average Mw of 2000 KDa and 30% HA with an average Mw of 1000 KDa in PBS solution, the final concentration is 0.5%; i.e. 0.5 g HA in 100 c.c. PBS solution).
Thirty eight-weeks-old SPF Sprague-Dawley male rats (BioLASCO Taiwan Co., Ltd.), were divided into 3 groups: study group (Aspirin/PU98), placebo group (Aspirin/PBS), control group (PBS), each group consisting of 10 rats with 2 rats housed per cage at the Animal Technology Institute Taiwan rodents room.
Before animal experimentation, rats were first fasted for 24 hours or more. From day one (D1) of experimentation to day three (D3), rats were given 1 ml of Aspirin (200 mg/ml) through intraperitoneal administration.
From day 4 to day 18, rats of the study group were given 1 ml of Aspirin (100 mg/ml) daily through intraperitoneal administration, they were also fed a 2 ml dosage of PU98 once every morning and afternoon.
From day 4 to day 18, rats of the placebo group were given 1 ml of Aspirin (100 mg/ml) daily through intraperitoneal administration, however they were fed a 2 ml dosage of PBS (placebo) once every morning and afternoon. […]
The present invention was analyzed by “student t test” to evaluate relationship between the study group, placebo group and control group.

## CC(=O)Oc1ccccc1C(=O)O [Aspirin]
  rats died on day 4 after Aspirin induction: 11
